These are literature values, as cited in paper PMC7099596 (ACS Central Science, 2020).

Usually EC50 stands for the concentration needed to bring the measured effect to its halfway point.

Data set [1] concerns MCF-7 breast cancer cell line. The note with it: read-out: EC50 antiproliferative activity, MCF-7, ref NCI ID: 122750.
Data set [2] relates to SKBr-3 breast cancer cell line. The note with it: read-out: EC50 antiproliferative activity, SKBr-3, ref NCI ID: 122750.

The structures appear in SMILES notation.

Regarding `COC1=C2C[C@@H](C)C[C@H](OC)[C@H](O)[C@@H](C)/C=C(\C)[C@H](OC(N)=O)[C@@H](OC)/C=C\C=C(/C)C(=O)NC(=CC1=O)C2=O` [geldanamycin], the EC50 was 19.9 nM in data set [1] and 24 nM in data set [2].
